Assay results taken from patent publication US10981932B2, “Macrocyclic indole derivatives” (Bayer Aktiengesellschaft, priority 2016, dated 2021).
Where two headings read alike, the source gives them in different places.

Columns and labels:
MCL-1 = MCL-1 (Homo sapiens, UniProt Q07820); test: Protein-protein interaction assay MCL-1/Noxa BH3 peptide (MCL-1 assay), TR-FRET; assay type: binding; details: MBP-MCL-1 / Noxa BH3-derived peptide, median
In short: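 IC50 came from a 4-parameter fit of the normalized 665/620 nm TR-FRET ratio (anti-MBP Eu-cryptate/streptavidin-XL665). Compounds (0.1 nM–20 μM, duplicates) were preincubated 10 min at 22 °C with 1 nM MBP-MCL-1 in pH 7 Tris/NaCl/KF buffer, then read after 1 h at 22 °C plus overnight at 4 °C.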

SUDHL5 [1] = test: Induction of caspase-3/7 activity (Caspase-Glo 3/7), SUDHL5; assay type: cell-based; details: caspase-3/7 induction, SUDHL5 cells, 3 h treatment, median
In short: (§1)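 DLBCL lines SUDHL5 and SUDHL10 treated with compounds for 3 h at 37 °C; caspase-3/7 activity read by Caspase-Glo 3/7 luminescence. Medium-only background subtracted; EC50 fitted with bottom fixed at 1 and top fixed at the reference compound's maximal induction.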

SUDHL10 [2] = test: Induction of caspase-3/7 activity (Caspase-Glo 3/7), SUDHL10; assay type: cell-based; details: caspase-3/7 induction, SUDHL10 cells, 3 h treatment, median
In short: as §1

A2780 = test: Anti-proliferative effect (CellTiter-Glo, 72 h), A2780; assay type: cell-based; details: A2780 cells, median, read-out: IC50 antiproliferation assay A2780 [M] (median)
In short: (§2)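 72 h compound treatment, 37 °C humidified; CellTiter-Glo added, 10 min incubation, luminescence read; day 0 plate read in parallel for baseline.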

MV-4-11 = test: Anti-proliferative effect (CellTiter-Glo, 72 h), MV-4-11; assay type: cell-based; details: MV-4-11 cells, median, read-out: IC50 antiproliferation assay MV-4-11 [M] (median)
Experimental: Assessment of the Anti-Proliferative Effect of Compounds in Different Cell Lines
The impact of compounds on the proliferation of different cell lines was assessed using the CellTiter-Glo® Luminescent Cell Viability reagent from Promega (G7573). Of note, SUDHL10 and SUDHL5 (DLBCL), NCI-H929 (Multiple Myeloma), A2780 (ovarian carcinoma) as well as MV-4-11(AML) cells are sensitive to MCL-1 inhibition.
In parallel, cells were plated in a reference (day 0) plate for time zero determination.
Rim wells were excluded. The cells were incubated for 72 h hours in a humidified incubator at 37° C. The day 0 plate was measured by adding 30 μl/well of CTG solution (CellTiter-Glo® Luminescent Cell Viability reagent, Promega G7573) to time zero wells in the reference plate followed by a 10 minutes incubation and luminescence reading at 0.1 ms, using the PHERAstar FS microplate reader (BMG Labtech).
After 72 h incubation, the treated plates were measured in the same way as the day 0 plate mentioned above.

SUDHL5 [3] = test: Induction of cytotoxicity (CellTiter-Glo, 5 h), SUDHL5
SUDHL10 [4] = test: Induction of cytotoxicity (CellTiter-Glo, 5 h), SUDHL10
SUDHL5 [5] = test: Anti-proliferative effect (CellTiter-Glo, 72 h), SUDHL5; assay type: cell-based; details: SUDHL5 cells, antiproliferation, 72 h incubation, median, read-out: Antiproli SUDHL5 [M] (median)
In short: as §2

[6] = read-out: Cytotox SUDHL5 [M] (median), SUDHL5 cells, cytotoxicity induction, CellTiter-Glo, 5 h incubation, median
[7] = read-out: Cytotox SUDHL10 [M] (median), SUDHL10 cells, cytotoxicity induction, CellTiter-Glo, 5 h incubation, median
[8] = read-out: Cytotox SUDHL5 [M] (median), SUDHL5 cells, cytotoxicity induction, CellTiter-Glo, 5 h, median
[9] = Homo sapiens, SU-DHL10, 5 h, read-out: Cytotox SUDHL10 [M] (median), SUDHL10 cells, cytotoxicity induction, CellTiter-Glo, 5 h, median
[10] = Homo sapiens, SU-DHL-5, 5 h, read-out: Cytotox SUDHL5 [M] (median), SUDHL5 cells, cytotoxicity induction, CellTiter-Glo, 5 h, median
[11] = read-out: Cytotox SUDHL10 [M] (median), SUDHL10 cells, cytotoxicity induction, CellTiter-Glo, 5 h, median

Chain of MCL-1 (Q07820 whole entry): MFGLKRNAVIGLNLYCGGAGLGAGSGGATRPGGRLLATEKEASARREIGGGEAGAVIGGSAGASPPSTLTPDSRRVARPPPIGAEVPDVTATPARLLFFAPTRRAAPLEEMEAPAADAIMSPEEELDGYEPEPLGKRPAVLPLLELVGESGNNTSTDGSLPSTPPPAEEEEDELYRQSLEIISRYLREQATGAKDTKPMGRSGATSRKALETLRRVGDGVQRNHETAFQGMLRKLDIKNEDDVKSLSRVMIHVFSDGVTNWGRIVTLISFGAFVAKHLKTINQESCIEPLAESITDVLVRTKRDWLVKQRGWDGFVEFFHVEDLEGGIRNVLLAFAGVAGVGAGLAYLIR

IC50 (MCL-1) | EC50 (SUDHL10 [2]; Homo sapiens, SU-DHL10, 3 h) | IC50 (A2780; Homo sapiens, A2780, 72 h) | IC50 (MV-4-11; Homo sapiens, MV4-11, 72 h) | EC50 (SUDHL5 [1]) | EC50 (SUDHL10 [2]) | IC50 (MV-4-11) | IC50 (A2780) | SMILES | also measured
0.0927 µM | > 33 µM | 2.27e-05 M | 1.07e-05 M | – | – | – | – | Cc1nn(C)c2c1-c1cccc3c(CCCOc4cccc5ccccc45)c(C(=O)O)n(c13)CCCCN(C)C2 (single isomer, unassigned) [Example 239, (−)-1,3,15-trimethyl-7-[3-(naphthalen-1-yloxy)propyl]-1,10,11,12,13,14,15,16-octahydropyrazolo[4′,3′:4,5][1,7]diazacyclododecino[3,2,1-hi]indole-8-carboxylic Acid] | EC50 (SUDHL5 [1]; Homo sapiens, SU-DHL-5, 3 h): > 33 µM; IC50 (SUDHL5 [3]; Homo sapiens, SU-DHL-5, 5 h, read-out: Cytotox SUDHL5 [M] (median), SUDHL5 cells, cytotoxicity induction, CellTiter-Glo, 5 h incubation, median): > 3.3e-05 M; IC50 (SUDHL10 [4]; Homo sapiens, SU-DHL10, 5 h, read-out: Cytotox SUDHL10 [M] (median), SUDHL10 cells, cytotoxicity induction, CellTiter-Glo, 5 h incubation, median): 3.03e-05 M
0.00585 µM | – | – | 2.75e-06 M | 2.71 µM | 10.1 µM | – | – | CCc1nn(C)c2c1-c1c(C)ccc3c(C(C)CCOc4cccc5cc(F)ccc45)c(C(=O)O)n(c13)CCCCOC2 (single isomer, unassigned) [Example 265, 3-ethyl-7-{4-[(6-fluoronaphthalen-1-yl)oxy]butan-2-yl}-1,4-dimethyl-1,10,11,12,13,15-hexahydropyrazolo[4′,3′:9,10][1,6]oxazacycloundecino[8,7,6-hi]indole-8-carboxylic Acid] | IC50 (SUDHL5 [5]): 2.58e-06 M; IC50 (SUDHL5 [3]; [6]): 2.09e-06 M; IC50 (SUDHL10 [4]; [7]): 7.35e-06 M
0.012 µM | – | – | – | 2.32 µM | 3.34 µM | 2.69e-06 M | – | CN1CCCn2c(C(=O)O)c(CCCOc3cccc4ccccc34)c3cccc(c32)-c2c(nn(C)c2COc2ccc(N3CCN(S(=O)(=O)N(C)C)CC3)cc2)C1 (single isomer, unassigned; enantiomer 1) [Example 1-112, 11-({4-[4-(Dimethylsulfamoyl)piperazin-1-yl)phenoxy]methyl}-7,10-dimethyl-1-[3-(1-naphthyloxy)propyl]-4,5,6,7,8,10-hexahydropyrazolo[3′,4′:7,8][1,5]diazecino[9,10,1-hi]indole-2-carboxylic Acid (Enantiomer 1)] | IC50 (SUDHL5 [5]): 2.72e-06 M; IC50 (SUDHL5 [3]; [6]): 3.3e-06 M; IC50 (SUDHL10 [4]; [7]): 5.46e-06 M
0.00536 µM | – | – | 1.36e-05 M | – | – | – | > 3.3e-05 M | CCc1nn(C)c2c1-c1cccc3c(CCCOc4cccc5cc(Cl)ccc45)c(C(=O)O)n(c13)CCCCOC2 (single isomer, unassigned; enantiomer 1) [Example 305, 7-{3-[(6-chloronaphthalen-1-yl)oxy]propyl}-3-ethyl-1-methyl-1,10,11,12,13,15-hexahydropyrazolo[4′,3′:9,10][1,6]oxazacycloundecino[8,7,6-hi]indole-8-carboxylic Acid (Enantiomer 1)] | –
0.00507 µM | > 33 µM | > 3.3e-05 M | > 3.3e-05 M | 7.18 µM | – | – | – | Cc1ccc2c(OCCCc3c(C(=O)O)n4c5c(cccc35)-c3c(nn(C)c3C)COCCCC4)cccc2c1 (single isomer, unassigned; enantiomer 1) [Example 308, 2,3-dimethyl-7-{3-[(6-methylnaphthalen-1-yl)oxy]propyl}-2,10,11,12,13,15-hexahydropyrazolo[4′3′:9,10][1,6]oxazacycloundecino[8,7,6-hi]indole-carboxylic Acid (Enantiomer 1)] | IC50 (SUDHL5 [3]; [8]): 5.61e-06 M; IC50 (SUDHL10 [4]; [9]): > 3.3e-05 M
0.543 µM | > 33 µM | 1.11e-05 M | 1.16e-05 M | – | – | – | – | Cc1c2c(nn1C)COCCCCn1c(C(=O)O)c(CCCOc3cccc4cc(C(F)(F)F)ccc34)c3cccc-2c31 (single isomer, unassigned; enantiomer 1) [Example 311, 2,3-dimethyl-7-(3-{[6-(trifluoromethyl)naphthalen-1-yl]oxy}propyl)-2,10,11,12,13,15-hexahydropyrazolo[4′,3′:9,10][1,6]oxazacycloundecino[8,7,6-hi]indole-8-carboxylic Acid (Enantiomer 1)] | EC50 (SUDHL5 [1]; Homo sapiens, SU-DHL-5, 3 h): > 33 µM; IC50 (SUDHL5 [3]; [10]): 2.12e-05 M; IC50 (SUDHL10 [4]; [9]): 1.49e-05 M
0.0335 µM | > 33 µM | 1.56e-05 M | 1.35e-05 M | – | – | – | – | CCc1nn(C)c2c1-c1cccc3c(CCCOc4cccc5cc(C(F)(F)F)ccc45)c(C(=O)O)n(c13)CCCCOC2 (single isomer, unassigned; enantiomer 1) [Example 314, 3-ethyl-1-methyl-7-(3-{[6-(trifluoromethyl)naphthalen-1-yl]oxy}propyl)-1,10,11,12,13,15-hexahydropyrazolo[4′,3′:9,10][1,6]oxazacycloundecino[8,7,6-hi]indole-8-carboxylic Acid (Enantiomer 1)] | EC50 (SUDHL5 [1]; Homo sapiens, SU-DHL-5, 3 h): > 33 µM; IC50 (SUDHL5 [3]; [10]): 1.56e-05 M; IC50 (SUDHL10 [4]; [9]): 2.09e-05 M
0.286 µM | – | – | – | – | – | 1.5e-05 M | 1.02e-05 M | CCc1nn(C)c2c1-c1cccc3c(CCCOc4cccc5cc(Cl)ccc45)c(C(=O)O)n(c13)CCCCOC2 (single isomer, unassigned; enantiomer 2) [Example 306, 7-{3-[(6-chloronaphthalen-1-yl)oxypropyl}-3-ethyl-1-methyl-1,10,11,12,13,15-hexahydropyrazolo[4′,3′:9,10](1,6]oxazacycloundecino[8,7,6-hi]indole-8-carboxylic Acid (Enantiomer 2)] | –
0.133 µM | – | – | – | > 33 µM | > 33 µM | > 3.3e-05 M | > 3.3e-05 M | Cc1ccc2c(OCCCc3c(C(=O)O)n4c5c(cccc35)-c3c(nn(C)c3C)COCCCC4)cccc2c1 (single isomer, unassigned; enantiomer 2) [Example 309, 2,3-dimethyl-7-{3-[(6-methylnaphthalen-1-yl)oxy]propyl}-2,10,11,12,13,15-hexahydropyrazolo[4′3′:9,10][1,6]oxazacycloundecino[8,7,6-hi]indole-8-carboxylic Acid (Enantiomer 2)] | IC50 (SUDHL5 [3]; [8]): > 3.3e-05 M; IC50 (SUDHL10 [4]; [11]): > 3.3e-05 M
0.022 µM | – | – | – | – | – | 1.28e-05 M | 1.05e-05 M | Cc1c2c(nn1C)COCCCCn1c(C(=O)O)c(CCCOc3cccc4cc(C(F)(F)F)ccc34)c3cccc-2c31 (single isomer, unassigned; enantiomer 2) [Example 312, 2,3-dimethyl-7-(3-{[6-(trifluoromethyl)naphthalen-1-yl]oxy}propyl)-2,10,11,12,13,15-hexahydropyrazolo[4′,3′:9,10][1,6]oxazacycloundecino[8,7,6-hi]indole-8-carboxylic Acid (Enantiomer 2)] | –
0.919 µM | – | – | – | > 33 µM | 20.1 µM | 1.16e-05 M | 8.63e-06 M | CCc1nn(C)c2c1-c1cccc3c(CCCOc4cccc5cc(C(F)(F)F)ccc45)c(C(=O)O)n(c13)CCCCOC2 (single isomer, unassigned; enantiomer 2) [Example 315, 3-ethyl-1-methyl-7-(3-{[6-(trifluoromethyl)naphthalen-1-yl]oxy}propyl)-1,10,11,12,13,15-hexahydropyrazolo[4′,3′:9,10][1,6]oxazacycloundecino[8,7,6-hi]indole-8-carboxylic Acid (Enantiomer 2)] | IC50 (SUDHL5 [3]; [8]): 1.48e-05 M; IC50 (SUDHL10 [4]; [11]): 1.58e-05 M
